From patent US4261921A, “Process for preparation of a crystalline insecticidal pyrethroid enantiomer pair” (priority 1979, dated 1981)

Assays:
[1] = tested on: milkweed bug (Oncopeltus fasciatus); test: Topical Application Test, milkweed bug (MWB); format: in vivo
Description: (§1) The compound of this invention was tested for insecticidal activity by applying to the insect appropriate amounts of a toxicant solution containing 5 mg/ml of toxicant in acetone. The tests were read twenty-four hours after application of the toxicant solution and the percent kill determined. The commercial insecticide permethrin, 3-phenoxybenzyl (+) cis-trans-3-(2,2-dichlorovinyl)-2,2-dimethylcyclopropanecarboxylate, was used as the standard for comparison. Relative potency, based on a value of 1.0 for permethrin, was determined by comparing the LD50 for the test compound with that for the standard. The insects employed include southern armyworm (Spodoptera eridania [Cram.]), cabbage looper (Trichoplusia ni [Hubner]), Mexican bean beetle (Epilachna varivestis Muls.), beet armyworm (Spodoptera exigua [Hubner]), milkweed bug (Oncopeltus faciatus [Dallas]), tobacco budworm (Heliothis virescens [Fabricius]), and corn earworm (Heliothis zea [Boddle]).

[2] = tested on: Mexican bean beetle (Epilachna varivestis); test: Topical Application Test, Mexican bean beetle (MBB); format: in vivo
Description: as §1

insects = test: Topical Application Test, all insects, comparison with permethrin in words; format: in vivo; settings: topical tests, 24 h
Description: as §1

[3] = tested on: corn earworm (Heliothis zea); test: Topical Application Test, corn earworm (CEW); format: in vivo
Description: as §1

[4] = tested on: Mexican bean beetle (Epilachna varivestis); test: Initial Contact (Foliar) Activity, Mexican bean beetle (MBB); format: in vivo
Description: (§2) The compound of the invention was dissolved in a solution of 90% water, 9.75% acetone; and 0.25% octylphenoxypolyethoxyethanol to give a solution having 512 ppm (w/w) active ingredient. Aliquots of this solution were diluted with an appropriate amount of water to provide solutions containing various concentrations of active ingredient. Test organisms and techniques were as follows: The activity against Mexican bean beetle (Epilachna varivestis Muls.) and southern armyworm (Spodoptera eridania [Cram.]) was evaluated by spraying the leaves of pinto bean plants with the test solution and infesting with 3rd instar larvae after the foliage had dried. The activity against the pea aphid (Acyrthosiphon pisum [Harris]) was evaluated on broad bean plants whose leaves were sprayed before infestation with adult aphids. To prevent escape of the insects from the test site, the complete test plant or the incised leaves were placed in capped paper cups. The tests were transferred to a holding room for an exposure period of 48 hours. At the end of this time the dead and living insects were counted, the LD50 was calculated, and the potency relative to the commercial insecticide permethrin, 3-phenoxybenzyl (+) cis,trans-3-(2,2-dichloroethenyl)-2,2-dimethylcyclopropanecarboxylate determined.

[5] = tested on: cabbage looper (Trichoplusia ni); test: Topical Application Test, cabbage looper (CL); format: in vivo
Description: as §1

[6] = tested on: southern armyworm (Spodoptera eridania); test: Topical Application Test, southern armyworm (SAW); format: in vivo; settings: LD50 compared with permethrin = 1.0
Description: as §1

[7] = tested on: beet armyworm (Spodoptera exigua); test: Topical Application Test, beet armyworm (BAW); format: in vivo
Description: as §1

[8] = tested on: pea aphid (Acyrthosiphon pisum); test: Initial Contact (Foliar) Activity, pea aphid (PA); format: in vivo
Description: as §2

[9] = tested on: southern armyworm (Spodoptera eridania); test: Initial Contact (Foliar) Activity, southern armyworm (SAW); format: in vivo
Description: as §2

[10] = tested on: tobacco budworm (Heliothis virescens); test: Topical Application Test, tobacco budworm (TBW); format: in vivo; settings: LD50 compared with permethrin = 1.0
Description: as §1

[11] = U.S. Pat. No. 4,136,195; cited from earlier work
[12] = LD50 compared with permethrin = 1.0

Compound	Relative Potency [1, 12]	LD50 ([1]; read 24 h after application)	Relative Potency [2, 12]	LD50 ([2]; read 24 h after application)	insecticidal activity compared with permethrin (insects)	Relative Potency [3, 12]	LD50 ([3]; read 24 h after application)	LC50 ([4]; Mexican bean beetle 3rd instar larvae, pinto bean, 48 h exposure)	Relative Potency ([4]; Mexican bean beetle, 48 h, relative to permethrin)	Relative Potency [5, 12]	LD50 ([5]; read 24 h after application)	Relative Potency [6]	Relative Potency [7, 12]	LD50 ([7]; read 24 h after application)	LC50 ([8]; pea aphid adults, broad bean, 48 h exposure)	Relative Potency ([8]; pea aphid, 48 h, relative to permethrin)	LC50 ([9]; southern armyworm 3rd instar larvae, pinto bean, 48 h exposure)	Relative Potency ([9]; southern armyworm, 48 h, relative to permethrin)	Relative Potency [10]	activity among the disclosed diastereomers [11]
CC1(C)[C@H](C(=O)O[C@H](C#N)c2cccc(Oc3ccccc3)c2)[C@@H]1C=C(Cl)Cl (relative stereo) [compound of the invention, racemic mixture of (S)-(cyano)(3-phenoxyphenyl)methyl (1R,cis)-3-(2,2-dichloroethenyl)-2,2-dimethylcyclopropanecarboxylate and (R)-(cyano)(3-phenoxyphenyl)methyl (1S,cis)-3-(2,2-dichloroethenyl)-2,2-dimethylcyclopropanecarboxylate]	37.6	16.4 ng/insect	7.2	2.03 ng/insect	substantially more active than permethrin	2.5	110.9 ng/insect	1.62-1.86 parts per million	5.3-8.8	9.0	14.9 ng/insect	1.0-1.5	5.1	218.8 ng/insect	1.39-21.15 parts per million	2.5-9.8	.22-.38 parts per million	9.8-16.1	4.2-6.1	
CC1(C)[C@H](C(=O)O[C@H](C#N)c2cccc(Oc3ccccc3)c2)[C@@H]1C=C(Cl)Cl [1R,cis-α-S isomer, (S)-(cyano)(3-phenoxyphenyl)methyl (1R,cis)-3-(2,2-dichloroethenyl)-2,2-dimethylcyclopropanecarboxylate]																				the more active of the disclosed diastereomers
